Values of other authors as cited in publication PMC12300650, “Development and Characterization of a New Oral Antileishmanial Bis(pyridine-2-Carboxamidine) Drug Through Innovative Dissolution Testing in Biorelevant Media Combined with Pharmacokinetic Studies” (Pharmaceutics, 2025).
Like-named read-outs stand apart in the source and are kept apart here.

[1] = FaSSIF pH 6.5, ref Higashino et al., 2023 [23]
[2] = FaSSIF pH 6.8, ref Naing et al., 2024 [24]
[3] = Two state FaSSGF to FaSSIF, ref Arnold et al., 2011 [22]

Row | Compound | Precipitation time [1] | Supersaturation Time [1] | Precipitation time [2] | Supersaturation Time [2] | Precipitation time [3] | Supersaturation Time [3]
1 | CC(=O)N1CCN(c2ccc(OCC3COC(Cn4ccnc4)(c4ccc(Cl)cc4Cl)O3)cc2)CC1 (centres unmarked) [Ketoconazole] | 30 to 60 min | 30 min |  |  |  | 
2 | CC(C)c1nc(CN(C)C(=O)N[C@H](C(=O)N[C@@H](Cc2ccccc2)C[C@H](O)[C@H](Cc2ccccc2)NC(=O)OCc2cncs2)C(C)C)cs1 [Ritonavir] |  |  | 30 to 60 min | 30 min |  | 
3 | OCCN(CCO)c1nc(N2CCCCC2)c2nc(N(CCO)CCO)nc(N3CCCCC3)c2n1 [Dipyridamole] | 60 to 120 min | 30 min |  |  | 20 to 180 min | 20 min
